Assays:
M. morganii = test: Molecular phenotypic antimicrobial susceptibility test, specimen with two detected pathogens incubated together without isolation; assay type: cell-based, Morganella morganii; conditions: M. morganii in specimen with two detected pathogens (E. coli and M. morganii) incubated together; for Ct of Sensitive Breakpoint: Ct of controls (average) 19.99; for Molecular Antimicrobial Susceptibility Result: at sensitive breakpoint
Summary of the method: (§1)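 Susceptibility read molecularly: growth means resistance, prevented growth sensitivity, versus antibiotic-free control wells. Co-detected pathogens stay together without isolation; after 4-6 h preincubation and PCR identification (threshold >10,000 cells/mL), inoculum adjusted to 0.5 McFarland and placed on thawed plates with each drug at its breakpoint concentration(s).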

[1] = system: pathogens of clinical samples; test: Molecular phenotypic antimicrobial susceptibility test of clinical samples, extraction DNA purification step prior to PCR (Table 6); assay type: cell-based
Summary of the method: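 For direct PCR, exposed cultures are lysed in buffer in the thermal cycler, whereas purified runs first isolate DNA with magnetic beads. Pathogen-specific or universal targets are amplified semi-quantitatively after 12-16 h of antimicrobial exposure in Mueller Hinton Broth.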

E. coli = test: Molecular phenotypic antimicrobial susceptibility test, specimen with two detected pathogens incubated together without isolation; assay type: cell-based, Escherichia coli; conditions: E. coli in specimen with two detected pathogens (E. coli and M. morganii) incubated together; for Ct of Sensitive Breakpoint: Ct of controls (average) 15.93; for Molecular Antimicrobial Susceptibility Result: at sensitive breakpoint
Summary of the method: as §1

[2] = E. coli, clinical sample of r10-r24
[3] = E. coli, clinical sample of r10-r24, Ct Control Avg 18.112
[4] = E. coli, clinical sample of r158-r172
[5] = E. coli, clinical sample of r158-r172, Ct Control Avg 20.146
[6] = K. aerogenes, clinical sample of r136-r150
[7] = K. aerogenes, clinical sample of r136-r150, Ct Control Avg 19.994
[8] = K. pneumoniae, clinical sample of r121-r135
[9] = K. pneumoniae, clinical sample of r121-r135, Ct Control Avg 24.272
[10] = M. morganii, clinical sample of r55-r69
[11] = M. morganii, clinical sample of r55-r69, Ct Control Avg 28.86
[12] = M. morganii, clinical sample of r70-r84
[13] = M. morganii, clinical sample of r70-r84, Ct Control Avg 27.053
[14] = P. mirabilis, clinical sample of r25-r39
[15] = P. mirabilis, clinical sample of r25-r39, Ct Control Avg 26.064
[16] = P. mirabilis, clinical sample of r40-r54
[17] = P. mirabilis, clinical sample of r40-r54, Ct Control Avg 26.987

C[C@@H](O)[C@H]1C(=O)N2C(C(=O)O)=C(S[C@@H]3CN[C@H](C(=O)N(C)C)C3)[C@H](C)[C@H]12 [Meropenem]
Ct of Sensitive Breakpoint (M. morganii): 29.99 | Molecular Antimicrobial Susceptibility Result (M. morganii): Sensitive (Antimicrobial wells with pathogen load detected below the control wells (typically >2 cycle thresholds later) may be reported as Sensitive) | Molecular Antibiotic Susceptibility Result [1, 2]: Sensitive (Antimicrobial wells with pathogen load detected below the control wells (typically >2 cycle thresholds later) may be reported as Sensitive) | Ct [1, 3]: 27.07 | Molecular Antibiotic Susceptibility Result [1, 4]: Sensitive (Antimicrobial wells with pathogen load detected below the control wells (typically >2 cycle thresholds later) may be reported as Sensitive) | Ct [1, 5]: 30.723 | Molecular Antibiotic Susceptibility Result [1, 6]: Sensitive (Antimicrobial wells with pathogen load detected below the control wells (typically >2 cycle thresholds later) may be reported as Sensitive) | Ct [1, 7]: 33.144 | Molecular Antibiotic Susceptibility Result [1, 8]: Sensitive (Antimicrobial wells with pathogen load detected below the control wells (typically >2 cycle thresholds later) may be reported as Sensitive) | Ct [1, 9]: 31.816 | Molecular Antibiotic Susceptibility Result [1, 10]: Sensitive (Antimicrobial wells with pathogen load detected below the control wells (typically >2 cycle thresholds later) may be reported as Sensitive) | Ct [1, 11]: 37.898 | Molecular Antibiotic Susceptibility Result [1, 12]: Sensitive (Antimicrobial wells with pathogen load detected below the control wells (typically >2 cycle thresholds later) may be reported as Sensitive) | Ct [1, 13]: 36.672 | Molecular Antibiotic Susceptibility Result [1, 14]: Sensitive (Antimicrobial wells with pathogen load detected below the control wells (typically >2 cycle thresholds later) may be reported as Sensitive) | Ct [1, 15]: 34.223 | Molecular Antibiotic Susceptibility Result [1, 16]: Sensitive (Antimicrobial wells with pathogen load detected below the control wells (typically >2 cycle thresholds later) may be reported as Sensitive) | Ct [1, 17]: 35.503 | Ct of Sensitive Breakpoint (E. coli): 25.70 | Molecular Antimicrobial Susceptibility Result (E. coli): Sensitive (Antimicrobial wells with pathogen load detected below the control wells (typically >2 cycle thresholds later) may be reported as Sensitive)

Ampicillin/Sulbactam
Ct of Sensitive Breakpoint (M. morganii): 22.00 | Molecular Antimicrobial Susceptibility Result (M. morganii): Sensitive (Antimicrobial wells with pathogen load detected below the control wells (typically >2 cycle thresholds later) may be reported as Sensitive) | Molecular Antibiotic Susceptibility Result [1, 2]: Resistant | Ct [1, 3]: 17.123 | Molecular Antibiotic Susceptibility Result [1, 4]: Sensitive (Antimicrobial wells with pathogen load detected below the control wells (typically >2 cycle thresholds later) may be reported as Sensitive) | Ct [1, 5]: 29.662 | Molecular Antibiotic Susceptibility Result [1, 6]: Sensitive (Antimicrobial wells with pathogen load detected below the control wells (typically >2 cycle thresholds later) may be reported as Sensitive) | Ct [1, 7]: 31.018 | Molecular Antibiotic Susceptibility Result [1, 8]: Resistant | Ct [1, 9]: 23.602 | Molecular Antibiotic Susceptibility Result [1, 10]: Sensitive (Antimicrobial wells with pathogen load detected below the control wells (typically >2 cycle thresholds later) may be reported as Sensitive) | Ct [1, 11]: 37.093 | Molecular Antibiotic Susceptibility Result [1, 12]: Sensitive (Antimicrobial wells with pathogen load detected below the control wells (typically >2 cycle thresholds later) may be reported as Sensitive) | Ct [1, 13]: Undet | Molecular Antibiotic Susceptibility Result [1, 14]: Sensitive (Antimicrobial wells with pathogen load detected below the control wells (typically >2 cycle thresholds later) may be reported as Sensitive) | Ct [1, 15]: 33.809 | Molecular Antibiotic Susceptibility Result [1, 16]: Sensitive (Antimicrobial wells with pathogen load detected below the control wells (typically >2 cycle thresholds later) may be reported as Sensitive) | Ct [1, 17]: 36.062 | Ct of Sensitive Breakpoint (E. coli): 14.58 | Molecular Antimicrobial Susceptibility Result (E. coli): Resistant

Piperacillin/Tazobactam
Ct of Sensitive Breakpoint (M. morganii): 29.64 | Molecular Antimicrobial Susceptibility Result (M. morganii): Sensitive (Antimicrobial wells with pathogen load detected below the control wells (typically >2 cycle thresholds later) may be reported as Sensitive) | Molecular Antibiotic Susceptibility Result [1, 2]: Sensitive (Antimicrobial wells with pathogen load detected below the control wells (typically >2 cycle thresholds later) may be reported as Sensitive) | Ct [1, 3]: 26.499 | Molecular Antibiotic Susceptibility Result [1, 4]: Sensitive (Antimicrobial wells with pathogen load detected below the control wells (typically >2 cycle thresholds later) may be reported as Sensitive) | Ct [1, 5]: 30.693 | Molecular Antibiotic Susceptibility Result [1, 6]: Sensitive (Antimicrobial wells with pathogen load detected below the control wells (typically >2 cycle thresholds later) may be reported as Sensitive) | Ct [1, 7]: 32.586 | Molecular Antibiotic Susceptibility Result [1, 8]: Sensitive (Antimicrobial wells with pathogen load detected below the control wells (typically >2 cycle thresholds later) may be reported as Sensitive) | Ct [1, 9]: 34.274 | Molecular Antibiotic Susceptibility Result [1, 10]: Sensitive (Antimicrobial wells with pathogen load detected below the control wells (typically >2 cycle thresholds later) may be reported as Sensitive) | Ct [1, 11]: 36.138 | Molecular Antibiotic Susceptibility Result [1, 12]: Sensitive (Antimicrobial wells with pathogen load detected below the control wells (typically >2 cycle thresholds later) may be reported as Sensitive) | Ct [1, 13]: Undet | Molecular Antibiotic Susceptibility Result [1, 14]: Sensitive (Antimicrobial wells with pathogen load detected below the control wells (typically >2 cycle thresholds later) may be reported as Sensitive) | Ct [1, 15]: 28.92 | Molecular Antibiotic Susceptibility Result [1, 16]: Sensitive (Antimicrobial wells with pathogen load detected below the control wells (typically >2 cycle thresholds later) may be reported as Sensitive) | Ct [1, 17]: 33.895 | Ct of Sensitive Breakpoint (E. coli): 27.51 | Molecular Antimicrobial Susceptibility Result (E. coli): Sensitive (Antimicrobial wells with pathogen load detected below the control wells (typically >2 cycle thresholds later) may be reported as Sensitive)

— patent publication US20250290117A1, “MOLECULAR PHENOTYPIC ANTIMICROBIAL SUSCEPTIBILITY TESTING” (priority 2024, published 2025)
